SMILES strings stand for the structures. Values after ≈ are worked out from the molar mass of the structure shown. Read-outs that look alike come from different tables or passages of the source.

The subject of test [1] is kanamycin-resistant strains. The note with it: in words; cited from earlier work.
For test [2], the system named is Bacillus subtilis NRRL B-558. Nature of the test: MIC, standard serial dilution method. Type of test: cell-based. The note with it: Bacillus subtilis, NRRLB558; B. subtilis NRRL B-558; nutrient agar, 37°C, 18 hours; read-out: Minimal inhibitory concentration. As to the method: (§1) The minimum inhibitory concentrations (mcg/ml) of 6'-amino-6'-deoxylividomycin B, 6'-deoxy-6'-methylaminolividomycin B and 6'-deoxy-6'-(2-hydroxyethylamino) lividomycin B against various microorganisms were determined according to a standard serial dilution method using nutrient agar incubation medium at 37°C, the estimation being effected after 18 hours incubation except for Mycobacterium smegmalis ATCC 607, in which the estimation being effected after 48 hours incubation. The minimum inhibitory concentrations (mcg/ml) of neomycin and lividomycin B were also determined in the same manner they also for comparison.

For test [3], the system named is Escherichia coli K-12 J 5 R 11-2. Nature of the test: MIC, standard serial dilution method. As to conditions: Escherichia coli, K12J5R112; E. coli K-12 J 5 R 11-2; nutrient agar, 37°C, 18 hours; read-out: Minimal inhibitory concentration. Type of test: cell-based. How it is done: as §1
For test [4], the system named is Escherichia coli K-12 LA 290 R 56. Nature of the test: MIC, standard serial dilution method. Type of test: cell-based. The note with it: Escherichia coli, 18 h, read-out: Minimal inhibitory concentration. As to the method: as §1
Test [5] has as its system Escherichia coli K-12 ML 1410 R 81. Put plainly: MIC, standard serial dilution method. It counts as cell-based. The note with it: Escherichia coli, 18 h, read-out: Minimal inhibitory concentration. How it is done:
as §1

For test [6], the system named is Escherichia coli K-12 ML 1410. Put plainly: MIC, standard serial dilution method. As to conditions: Escherichia coli, read-out: Minimal inhibitory concentration. It counts as cell-based. As to the method:
as §1

Test [7] relates to Escherichia coli K-12 ML 1630. Put plainly: MIC, standard serial dilution method. It counts as cell-based. As to conditions: Escherichia coli, K12ML1630; E. coli K-12 ML 1630; nutrient agar, 37°C, 18 hours; read-out: Minimal inhibitory concentration. As to the method:
as §1

The subject of test [8] is Escherichia coli K-12 R-5. Nature of the test: MIC, standard serial dilution method. Type of test: cell-based. The note with it: Escherichia coli, K12R5; E. coli K-12 R-5; nutrient agar, 37°C, 18 hours; read-out: Minimal inhibitory concentration. How it is done: as §1
For test [9], the system named is Escherichia coli K-12 W 677. Put plainly: MIC, standard serial dilution method. The note with it: Escherichia coli, read-out: Minimal inhibitory concentration. Type of test: cell-based. How it is done:
as §1

The subject of another test is Escherichia coli K-12. Nature of the test: MIC, standard serial dilution method. Type of test: cell-based. The note with it: Escherichia coli, read-out: Minimal inhibitory concentration. As to the method: as §1
The next test deals with Escherichia coli NIHJ. Nature of the test: MIC, standard serial dilution method. It counts as cell-based. The note with it: Escherichia coli; E. coli NIHJ; nutrient agar, 37°C, 18 hours; read-out: Minimal inhibitory concentration. How it is done: as §1
The subject of test [10] is Klebsiella pneumoniae PCI 602. Put plainly: MIC, standard serial dilution method. Type of test: cell-based. As to conditions: Klebsiella pneumoniae, PCI602; K. pneumoniae PCI 602; nutrient agar, 37°C, 18 hours; read-out: Minimal inhibitory concentration. As to the method:
as §1

For test [11], the system named is Klebsiella pneumoniae type 22 No. 3038. Nature of the test: MIC, standard serial dilution method. The note with it: Klebsiella pneumoniae, read-out: Minimal inhibitory concentration. It counts as cell-based. How it is done: as §1
Test [12] has as its system Mycobacterium smegmatis ATCC 607. Put plainly: MIC, standard serial dilution method. The note with it: Mycolicibacterium smegmatis, ATCC607, nutrient agar, 37°C, 48 hours, read-out: Minimal inhibitory concentration. It counts as cell-based. How it is done:
as §1

The subject of the next test is Proteus rettgeri GN 311. Nature of the test: MIC, standard serial dilution method. It counts as cell-based. As to conditions: Providencia rettgeri, GN311, nutrient agar, 37°C, 18 hours, read-out: Minimal inhibitory concentration. How it is done: as §1
Another test relates to Proteus rettgeri GN 466. Put plainly: MIC, standard serial dilution method. It counts as cell-based. The note with it: Providencia rettgeri, read-out: Minimal inhibitory concentration. How it is done: as §1
The test system of test [13] is Pseudomonas aeruginosa 99. Nature of the test: MIC, standard serial dilution method. It counts as cell-based. As to conditions: read-out: Minimal inhibitory concentration. As to the method: as §1
Test [14] relates to Pseudomonas aeruginosa A 3. Nature of the test: MIC, standard serial dilution method. As to conditions: Pseudomonas aeruginosa, A3, 18 h, read-out: Minimal inhibitory concentration. Type of test: cell-based. How it is done:
as §1

In test [15] the test system is Pseudomonas aeruginosa No.12. Put plainly: MIC, standard serial dilution method. It counts as cell-based. The note with it: Pseudomonas aeruginosa; P. aeruginosa No.12; nutrient agar, 37°C, 18 hours; read-out: Minimal inhibitory concentration. As to the method:
as §1

Test [16] concerns Pseudomonas aeruginosa TI-13-1. Nature of the test: MIC, standard serial dilution method. Type of test: cell-based. As to conditions: Pseudomonas aeruginosa, TI131; P. aeruginosa TI-13-1; nutrient agar, 37°C, 18 hours; read-out: Minimal inhibitory concentration. As to the method:
as §1

The test system of a further test is Salmonella typhosa T-63. Put plainly: MIC, standard serial dilution method. It counts as cell-based. As to conditions: Salmonella enterica, TYPHOSA, 18 h, read-out: Minimal inhibitory concentration. How it is done: as §1
In a further test the test system is Sarcina lutea PCI 1001. Put plainly: MIC, standard serial dilution method. Type of test: cell-based. The note with it: Micrococcus luteus, PCI1001, nutrient agar, 37°C, 18 hours, read-out: Minimal inhibitory concentration. As to the method: as §1
Test [17] concerns Staphylococcus aureus FDA 209 P. Put plainly: MIC, standard serial dilution method. The note with it: Staphylococcus aureus, FDA209; S. aureus FDA 209 P; nutrient agar, 37°C, 18 hours; read-out: Minimal inhibitory concentration. It counts as cell-based. How it is done:
as §1

In test [18] the test system is Escherichia coli K-12 JR 66/W 677. Put plainly: MIC, standard serial dilution method. It counts as cell-based. The note with it: Escherichia coli, 18 h, read-out: Minimal inhibitory concentration. As to the method: as §1
(§2) In the above table, the mark * denotes the strain is a drug-resistant
(§3) strain of patient-origin.

The test system of test [19] is Escherichia coli K-12 LA 290 R 55. Nature of the test: MIC, standard serial dilution method. Type of test: cell-based. As to conditions: Escherichia coli, 18 h, read-out: Minimal inhibitory concentration. As to the method:
as §1, §2, §3

Test [20] deals with Escherichia coli K-12 ML 1629. Put plainly: MIC, standard serial dilution method. Type of test: cell-based. The note with it: Escherichia coli, K12ML1629; E. coli K-12 ML 1629, drug-resistant strain of patient-origin; nutrient agar, 37°C, 18 hours; read-out: Minimal inhibitory concentration. How it is done:
as §1, §2, §3

In test [21] the test system is Pseudomonas aeruginosa GN 315. Put plainly: MIC, standard serial dilution method. As to conditions: Pseudomonas aeruginosa, GN315; P. aeruginosa GN 315, drug-resistant strain of patient-origin; nutrient agar, 37°C, 18 hours; read-out: Minimal inhibitory concentration. It counts as cell-based. As to the method:
as §1, §2, §3

For test [22], the system named is Escherichia coli K-12 LA 290 R 64. Nature of the test: MIC, standard serial dilution method. As to conditions: Escherichia coli; E. coli K-12 LA 290 R 64; nutrient agar, 37°C, 18 hours; read-out: Minimal inhibitory concentration. Type of test: cell-based. How it is done:
as §1

`NCC1CCC(N)C(OC2C(N)CC(N)C(OC3OC(CO)C(O)C(N)C3O)C2O)O1` (centres unmarked) [3', 4'-dideoxykanamycin B]: the “activity against kanamycin-resistant strains” value (“activity” for short) in test [1] is “actually effective”.

For `NC[C@@H]1CC[C@@H](N)[C@@H](O[C@H]2[C@H](O)[C@@H](O)[C@H](N)C[C@@H]2N)O1` [3', 4'-dideoxyneamine], the “activity” value in test [1] is “actually effective”.

Take `NCC1OC(OC2C(N)CC(N)C(OC3OC(CO)C(O)C(N)C3O)C2O)C(O)CC1O` (centres unmarked) [3'-Deoxykananmycin, 3'-deoxykanamycin]: in test [1], the “activity” value is reported as “actually effective”.

As to `NC[C@@H]1O[C@H](O[C@H]2[C@@H](O)[C@H](O[C@@H]3[C@@H](O)[C@H](N)C[C@H](N)[C@H]3O[C@H]3O[C@H](CN)[C@@H](O)C[C@H]3N)O[C@@H]2CO)[C@H](N)[C@@H](O)[C@@H]1O` [ALVB, 6'-amino-6'-deoxylividomycin B], the MIC in [2] was below 0.2 µg/mL; in test [3], 25 µg/mL (≈ 41.8 µM); in test [4] it was 0.39 µg/mL (≈ 0.651 µM); in [5] it was 100 µg/mL (≈ 167 µM); in [6] (K12ML1410, 18 h), 1.56 µg/mL (≈ 2.61 µM); in [7] it was 50 µg/mL (≈ 83.5 µM). The MIC in test [8] amounted to 0.39 µg/mL (≈ 0.651 µM); in [9] (K12W677, E. coli K-12 W 677, nutrient agar, 37°C, 18 hours), 0.78 µg/mL (≈ 1.3 µM); with Escherichia coli K-12 (K12, E. coli K-12, nutrient agar, 37°C, 18 hours) it was 0.78 µg/mL (≈ 1.3 µM); in the test with Escherichia coli NIHJ, 0.78 µg/mL (≈ 1.3 µM); in test [10], 0.78 µg/mL (≈ 1.3 µM); in [11] (TYPE22NO.3038, 18 h) it was 1.56 µg/mL (≈ 2.61 µM). Besides, the MIC is below 0.2 µg/mL in test [12]; 25 µg/mL (≈ 41.8 µM) with Proteus rettgeri GN 311; 3.12 µg/mL (≈ 5.21 µM) with Proteus rettgeri GN 466 (GN466, Proteus rettgeri GN 466, nutrient agar, 37°C, 18 hours); 1.56 µg/mL (≈ 2.61 µM) in [13] (Pseudomonas aeruginosa, 99, 18 h); 1.56 µg/mL (≈ 2.61 µM) in [14]; 0.78 µg/mL (≈ 1.3 µM) in [15]. In addition, the MIC is 100 µg/mL (≈ 167 µM) in [16]; 0.39 µg/mL (≈ 0.651 µM) with Salmonella typhosa T-63; 0.78 µg/mL (≈ 1.3 µM) in the test with Sarcina lutea PCI 1001; below 0.2 µg/mL in test [17]; 1.56 µg/mL (≈ 2.61 µM) in [18]; 1.56 µg/mL (≈ 2.61 µM) in [19]. Also, the MIC was found to be 50 µg/mL (≈ 83.5 µM) in [20] and 25 µg/mL (≈ 41.8 µM) in [21].

For `NC[C@@H]1O[C@H](O[C@H]2[C@@H](O)[C@H](O[C@@H]3[C@@H](O)[C@H](N)C[C@H](N)[C@H]3O[C@H]3O[C@H](CNCCO)[C@@H](O)C[C@H]3N)O[C@@H]2CO)[C@H](N)[C@@H](O)[C@@H]1O` [HALVB, 6'-deoxy-6'-(2-hydroxyethylamino) lividomycin B], the MIC in test [2] was below 0.2 µg/mL; in test [3], above 100 µg/mL; in [4], 0.78 µg/mL (≈ 1.21 µM); in [22] it was 1.56 µg/mL (≈ 2.43 µM); in [5], above 100 µg/mL; in [6] (K12ML1410, E. coli K-12 ML 1410, nutrient agar, 37°C, 18 hours), 3.12 µg/mL (≈ 4.85 µM). Also, the MIC was above 100 µg/mL in test [7]; 1.56 µg/mL (≈ 2.43 µM) in test [8]; 1.56 µg/mL (≈ 2.43 µM) in test [9] (K12W677, 18 h); 1.56 µg/mL (≈ 2.43 µM) with Escherichia coli K-12 (K12, 18 h); 3.12 µg/mL (≈ 4.85 µM) in the test with Escherichia coli NIHJ; 0.78 µg/mL (≈ 1.21 µM) in test [10]. Besides, the MIC in test [11] (TYPE22NO.3038, K. pneumoniae type 22 No. 3038, nutrient agar, 37°C, 18 hours) was 3.12 µg/mL (≈ 4.85 µM); in [12] it was below 0.2 µg/mL; with Proteus rettgeri GN 311, 50 µg/mL (≈ 77.8 µM); with Proteus rettgeri GN 466 (GN466, 18 h) it was 6.25 µg/mL (≈ 9.72 µM); in [13] (Pseudomonas aeruginosa, P. aeruginosa 99, nutrient agar, 37°C, 18 hours) it was 25 µg/mL (≈ 38.9 µM); in test [14], 6.25 µg/mL (≈ 9.72 µM). Also, the MIC is 0.78 µg/mL (≈ 1.21 µM) in test [15]; above 100 µg/mL in test [16]; 1.56 µg/mL (≈ 2.43 µM) in the test with Salmonella typhosa T-63; 25 µg/mL (≈ 38.9 µM) in the test on Sarcina lutea PCI 1001; 0.39 µg/mL (≈ 0.607 µM) in test [17]; 6.25 µg/mL (≈ 9.72 µM) in [18]. Also, the MIC is 1.56 µg/mL (≈ 2.43 µM) in [19], above 100 µg/mL in [20] and 12.5 µg/mL (≈ 19.4 µM) in test [21].

Values taken from patent publication US3956274A, “New compound 6'-deoxy-'-substituted or unsubstituted amino-lividomycins and the production thereof” (Zaidan Hojin Biseibutsu Kagaku Kenkyu Kai, priority 1973, dated 1976).
